In assay [1] the target is T1, JAK1 (Homo sapiens, UniProt P23458).
T1 construct: The kinase domain of humanJAK1 was amplified from U937mRNA; His tag (from pFastBac HTb vector; nickel chelate purification) (N); made in house; host or cells: baculovirus; virus made in Sf9, large-scale expression in High Five insect cells
In words: JAK1 kinase domain capture-based ELISA kinase assay. Format: biochemical. As to conditions: inhibit 50% of activity at 50 μM. In outline: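 His-tagged human JAK1 kinase domain was expressed via baculovirus in High Five insect cells and purified on nickel chelate resin. Phosphotyrosine was quantified by ELISA with peroxidase-linked PY20 after capture on avidin plates.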
Background: In an ELISA, binding on a coated surface is turned into a signal by an enzyme label.

The target of assay [2] is T2, JAK2 (Homo sapiens, UniProt O60674).
T2 construct: The kinase domain of humanJAK2 was amplified from U937mRNA; His tag (from pFastBac HTc vector; nickel chelate purification) (N); made in house; host or cells: baculovirus; virus made in Sf9, large-scale expression in High Five insect cells
T2 sequence (O60674 849-1124 limits assumed): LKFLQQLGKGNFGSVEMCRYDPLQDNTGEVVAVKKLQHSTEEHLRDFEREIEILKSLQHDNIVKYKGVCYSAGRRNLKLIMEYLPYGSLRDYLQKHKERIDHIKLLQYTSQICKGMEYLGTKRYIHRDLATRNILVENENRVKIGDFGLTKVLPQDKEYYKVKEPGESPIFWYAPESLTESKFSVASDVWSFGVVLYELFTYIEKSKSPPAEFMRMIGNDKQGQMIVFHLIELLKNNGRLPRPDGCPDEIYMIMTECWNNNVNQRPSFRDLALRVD
In words: JAK2 kinase domain capture-based ELISA kinase assay. Format: biochemical. As to conditions: inhibit 50% of activity at 50 μM. In outline: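 His-tagged human JAK2 kinase domain was baculovirus-expressed in High Five insect cells and nickel-purified. Phosphotyrosine was captured on avidin plates and detected by ELISA with peroxidase-linked PY20.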

In assay [3] the target is T3, JAK3 (Homo sapiens, UniProt P52333).
T3 construct: The kinase domain of humanJAK3 was amplified from U937mRNA; His tag (from pFastBac HTb vector; nickel chelate purification) (N); made in house; host or cells: baculovirus; virus made in Sf9, large-scale expression in High Five insect cells
T3 sequence (P52333 822-1111 limits assumed): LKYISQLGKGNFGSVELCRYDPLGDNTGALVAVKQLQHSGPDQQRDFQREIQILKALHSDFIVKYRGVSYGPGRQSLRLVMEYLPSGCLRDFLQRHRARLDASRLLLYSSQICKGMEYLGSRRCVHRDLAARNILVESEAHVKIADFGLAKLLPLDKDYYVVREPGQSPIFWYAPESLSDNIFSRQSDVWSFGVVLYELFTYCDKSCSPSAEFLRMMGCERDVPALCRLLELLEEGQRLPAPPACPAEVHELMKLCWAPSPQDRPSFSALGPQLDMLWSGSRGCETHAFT
The experiment in a line: JAK3 kinase domain capture-based ELISA kinase assay. Format: biochemical. The conditions noted are these: inhibit 50% of activity at 50 μM. Summed up:
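The human JAK3 kinase domain was His-tagged, baculovirus-expressed in High Five cells and nickel-affinity purified. Tyrosine phosphorylation was quantified on avidin-coated ELISA plates with peroxidase-linked anti-phosphotyrosine antibody PY20.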

The target in assay [4] is T4, TYK2 (Homo sapiens, UniProt P29597).
T4 construct: The kinase domain of humanTYK2 was amplified from A549 mRNA; His tag (from pBlueBacHis2A vector; nickel chelate purification) (N); made in house; host or cells: baculovirus; virus made in Sf9, large-scale expression in High Five insect cells
T4 sequence (P29597 897-1176 limits assumed): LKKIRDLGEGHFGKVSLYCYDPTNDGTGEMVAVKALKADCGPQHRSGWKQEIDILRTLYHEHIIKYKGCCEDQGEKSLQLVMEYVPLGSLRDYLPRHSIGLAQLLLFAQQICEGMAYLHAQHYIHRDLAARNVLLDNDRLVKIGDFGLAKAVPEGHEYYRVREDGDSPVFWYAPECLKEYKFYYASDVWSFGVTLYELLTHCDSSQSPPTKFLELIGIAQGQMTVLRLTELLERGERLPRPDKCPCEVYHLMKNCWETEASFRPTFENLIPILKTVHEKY
In words: TYK2 kinase domain capture-based ELISA kinase assay. Format: biochemical. The conditions noted are these: inhibit 50% of activity at 50 μM. In outline:
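His-tagged human TYK2 kinase domain expressed in baculovirus-infected insect cells and Ni-affinity purified. Biotinylated peptide substrate (5 μM final); phosphotyrosine captured on avidin plate and detected by peroxidase-linked PY20 antibody ELISA.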

The subject of assay [5] is T-cell activation. In words: T-cell activation cellular assay (MTT). The conditions noted are these: Table 4, 40 hr incubation. Format: cell-based. Here is the method:
(§1) Cellular assays were performed as follows:
(§2) Cell suspensions were prepared by harvesting cells from culture. Cell used in this test should be in later log phase growth and high viability. Cells were diluted in correct growth medium to 1.1× final concentration (from 50000 cell/ml to 200,000 cell/ml, depending on cell line). 90 μL was added to samples, diluted in PBS to 10× final concentration in flat-bottom 96-well plates (10 μL). After incubation for 40 hr in 37° C. 5% CO2 incubator, MTT 5 mg/ml (in PBS, filter sterile) 20 μl per well was added. The plates were returned to incubator for another 6 hours. Lysis Buffer (10% SDS, 0.01N HCl) 100 μl per well was added and the plate put back in incubator overnight. The plate was then read at 590 nm.

The subject of assay [6] is Jurkat. The experiment in a line: Jurkat cellular growth assay (MTT). As to conditions: Table 4, inhibit 50% of cellular growth, 40 hr incubation. Format: cell-based. How it is done:
as §1, §2

The subject of assay [7] is TSU. In words: TSU cellular growth assay (MTT). Format: cell-based. The conditions noted are these: Table 4, inhibit 50% of cellular growth, 40 hr incubation. Here is the method: as §1, §2

Some results are limits rather than exact numbers.

T1 sequence (P23458 875-1153 limits assumed): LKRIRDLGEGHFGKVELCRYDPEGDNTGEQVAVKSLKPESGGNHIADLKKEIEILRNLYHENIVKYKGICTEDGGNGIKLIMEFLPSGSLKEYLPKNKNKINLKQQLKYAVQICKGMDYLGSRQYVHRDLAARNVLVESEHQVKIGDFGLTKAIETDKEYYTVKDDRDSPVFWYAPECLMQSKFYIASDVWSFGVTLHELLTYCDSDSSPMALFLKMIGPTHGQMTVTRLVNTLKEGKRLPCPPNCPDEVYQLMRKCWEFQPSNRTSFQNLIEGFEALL

Turning to `CN(C)CCNC(=O)c1cccc(-c2cncc(N3CCN(c4ccccc4C#N)CC3)n2)c1` [CYT34503], the IC50 in assay [1] (Table 3), in assay [2] (Table 3), in assay [3] (Table 3) and in assay [4] (Table 3) was less than 50 µM throughout.

As for `COc1cncc(-c2cncc(NCc3ccc(F)cc3)n2)c1` [drawing 53], the IC50 (as a rule, the concentration at which inhibition is half-maximal) came to 30 µM in assay [5] (T-cell, 40 h); 50 µM in assay [6] (Homo sapiens, Jurkat, 40 h); 50 µM in assay [7].

Regarding `COc1cncc(-c2cncc(N[C@@H](C)c3ccccc3)n2)c1` [drawing 54], the IC50 is 15 µM in assay [5] (T-cell, 40 h); 50 µM in assay [6] (Homo sapiens, Jurkat, 40 h); 20 µM in assay [7].

For `COc1cc(-c2cncc(N[C@@H](C)c3ccccc3)n2)cc(OC)c1OC` [drawing 55], the IC50 came out at 10 µM in assay [5], 20 µM in assay [6] and 10 µM in assay [7].

As to `COc1cc(-c2cncc(NCc3ccccc3)n2)cc(OC)c1OC` [drawing 56], the IC50 in assay [5] (T-cell, 40 h) stood at 15 µM; in assay [6] (Homo sapiens, Jurkat, 40 h), 20 µM; in assay [7], 10 µM.

Take `COc1cc(-c2cncc(N[C@@H](C)c3ccccc3)n2)cc(OC)c1OC` [drawing 57]: the IC50 in assay [5] (T-cell, 40 h) came to 12 µM; in assay [6] (Homo sapiens, Jurkat, 40 h), 35 µM; in assay [7], 10 µM.

As to `C[C@H](Nc1cncc(-c2cccc(CO)c2)n1)c1ccccc1` [drawing 58], the IC50 was 20 µM in assay [5] (T-cell, 40 h); 20 µM in assay [6] (Homo sapiens, Jurkat, 40 h); 15 µM in assay [7].

For `COc1cncc(-c2cncc(NCC(C)(C)CO)n2)c1` [drawing 59], the IC50 in assay [5] (T-cell, 40 h) is 15 µM; in assay [6] (Homo sapiens, Jurkat, 40 h), 40 µM; in assay [7] it was 40 µM.

Regarding `CC(=O)Nc1cccc(-c2cncc(NCc3cccc(Cl)c3)n2)c1` [drawing 60], the IC50 was 30 µM in assay [5] (T-cell, 40 h); 40 µM in assay [6] (Homo sapiens, Jurkat, 40 h); 5 µM in assay [7].

As for `c1cc(-c2cn3ccnc3c(Nc3ccc(N4CCOCC4)cc3)n2)ccn1` [drawing 61], the IC50 in assay [1] (Table 5), in assay [2] (Table 5), in assay [3] (Table 5) and in assay [4] (Table 5) was less than 50 µM each time.

On to `c1cncc(-c2cn3ccnc3c(Nc3ccc(N4CCOCC4)cc3)n2)c1` [drawing 62], for which the IC50 in assay [1] (Table 5), in assay [2] (Table 5), in assay [3] (Table 5) and in assay [4] (Table 5) was less than 50 µM throughout.

As for `OCc1ccccc1-c1cn2ccnc2c(Nc2ccc(N3CCOCC3)cc2)n1` [drawing 64], the IC50 in assay [1] (Table 5), in assay [2] (Table 5), in assay [3] (Table 5) and in assay [4] (Table 5) was less than 50 µM each time.

As to `CCN(CCO)c1ccc(Nc2nc(-c3cccc4ccccc34)cn3ccnc23)cc1` [drawing 68], the IC50 in assay [1] (Table 5), in assay [2] (Table 5), in assay [3] (Table 5) and in assay [4] (Table 5) was less than 50 µM in each case.

Consider `CCN(CCO)c1ccc(Nc2nc(-c3ccccc3CO)cn3ccnc23)cc1` [drawing 69], for which the IC50 in assay [1] (Table 5), in assay [2] (Table 5), in assay [3] (Table 5) and in assay [4] (Table 5) was less than 50 µM throughout.

Consider `Nc1cccc(-c2cn3ccnc3c(Nc3ccccc3)n2)c1` [drawing 71], for which the IC50 in assay [1] (Table 5), in assay [2] (Table 5), in assay [3] (Table 5) and in assay [4] (Table 5) was less than 50 µM each time.

Consider `Oc1ccc(-c2cn3ccnc3c(N3CCOCC3)n2)cc1` [drawing 75], for which the half-inhibitory concentration (IC50) in assay [1] (Table 5), in assay [2] (Table 5), in assay [3] (Table 5) and in assay [4] (Table 5) was less than 50 µM each time.

As to `Brc1cn2ccnc2c(Nc2ccc(N3CCOCC3)cc2)n1` [drawing 82], the IC50 in assay [1] (Table 5), in assay [2] (Table 5), in assay [3] (Table 5) and in assay [4] (Table 5) was less than 50 µM each time.

Regarding `CCN(CCO)c1ccc(Nc2nc(Br)cn3ccnc23)cc1` [drawing 83], the IC50 in assay [1] (Table 5), in assay [2] (Table 5), in assay [3] (Table 5) and in assay [4] (Table 5) was less than 50 µM in each case.

Take `COCCNc1nc(-c2ccccc2)cn2ccnc12` [drawing 85]: the IC50 in assay [1] (Table 5), in assay [2] (Table 5), in assay [3] (Table 5) and in assay [4] (Table 5) was less than 50 µM in each case.

Regarding `Nc1cccc(-c2cn3ccnc3c(Nc3ccccc3)n2)c1` [drawing 87], the IC50 in assay [1] (Table 6) was less than 50 µM; in assay [2] (Table 6), less than 50 µM; in assay [3] (Table 6) it was greater than 50 µM; in assay [4] (Table 6) it was less than 50 µM.

Turning to `Oc1ccc(-c2cn3ccnc3c(N3CCOCC3)n2)cc1` [drawing 90], the IC50 was greater than 50 µM in assay [1] (Table 6), less than 50 µM in assay [2] (Table 6), greater than 50 µM in assay [3] (Table 6) and greater than 50 µM in assay [4] (Table 6).

In the case of `COCCNc1nc(-c2ccccc2)cn2ccnc12` [drawing 93], the IC50 in assay [1] (Table 6) is less than 50 µM; in assay [2] (Table 6), less than 50 µM; in assay [3] (Table 6) it was greater than 50 µM; in assay [4] (Table 6) it was greater than 50 µM.

Turning to `CCN(CCO)c1ccc(Nc2nc(-c3cccc4ccccc34)cn3ccnc23)cc1` [drawing 94], the IC50 in assay [1] (Table 6) is less than 50 µM; in assay [2] (Table 6) it was less than 50 µM; in assay [3] (Table 6), greater than 50 µM; in assay [4] (Table 6), greater than 50 µM.

On to `CCN(CCO)c1ccc(Nc2nc(-c3ccccc3CO)cn3ccnc23)cc1` [drawing 96], for which the IC50 in assay [1] (Table 6) was less than 50 µM; in assay [2] (Table 6), less than 50 µM; in assay [3] (Table 6) it was greater than 50 µM; in assay [4] (Table 6) it was less than 50 µM.

On to `Brc1cn2ccnc2c(Nc2ccc(N3CCOCC3)cc2)n1` [drawing 100], for which the IC50 in assay [1] (Table 6) is less than 50 µM; in assay [2] (Table 6) it was less than 50 µM; in assay [3] (Table 6) it was greater than 50 µM; in assay [4] (Table 6), less than 50 µM.

As for `CCN(CCO)c1ccc(Nc2nc(Br)cn3ccnc23)cc1` [drawing 101], the IC50 in assay [1] (Table 6) is less than 50 µM; in assay [2] (Table 6), less than 50 µM; in assay [3] (Table 6), greater than 50 µM; in assay [4] (Table 6), less than 50 µM.

For the compound `c1cc(-c2cn3ccnc3c(Nc3ccc(N4CCOCC4)cc3)n2)ccn1` [drawing 120], the IC50 in assay [1] (Table 6) was less than 50 µM; in assay [2] (Table 6), less than 50 µM; in assay [3] (Table 6), greater than 50 µM; in assay [4] (Table 6), less than 50 µM.

Turning to `c1cncc(-c2cn3ccnc3c(Nc3ccc(N4CCOCC4)cc3)n2)c1` [drawing 131], the IC50 in assay [1] (Table 6) was less than 50 µM; in assay [2] (Table 6), less than 50 µM; in assay [3] (Table 6), greater than 50 µM; in assay [4] (Table 6), less than 50 µM.

Turning to `OCc1ccccc1-c1cn2ccnc2c(Nc2ccc(N3CCOCC3)cc2)n1` [drawing 142], the IC50 was less than 50 µM in assay [1] (Table 6), less than 50 µM in assay [2] (Table 6), greater than 50 µM in assay [3] (Table 6) and greater than 50 µM in assay [4] (Table 6).

Source of the values: US20060069084A1, “Methods of inhibiting kinases” (priority 2001, published 2006).
